We go through 19 compounds from ChEMBL document CHEMBL3739364, “Synthesis and biological evaluation of novel 5-(hydroxamic acid)methyl oxazolidinone derivatives” (Eur J Med Chem, 2015).

The structures appear in SMILES notation. Values after ≈ are worked out from the molar mass of the structure shown.

The subject of data set [1] is Staphylococcus aureus. Kind of data set: Antibacterial activity against […] Staphylococcus aureus ATCC 25923. It is filed as functional.
For data set [2], the system named is Staphylococcus epidermidis. Kind of data set: Antibacterial activity against methicillin-sensitive Staphylococcus epidermidis ATCC 12228. It is filed as functional.
Data set [3] deals with Streptococcus pneumoniae. Kind of data set: Antibacterial activity against Streptococcus pneumoniae. It is filed as functional.
Data set [4] concerns Escherichia coli. In words: Antibacterial activity against Escherichia coli ATCC 25922. The format is functional.
For data set [5], the system named is Haemophilus influenzae. Kind of data set: Antibacterial activity against Haemophilus influenzae ATCC 49247. It is filed as functional.
The target in data set [6] is T1, MAO-A (amine oxidase [flavin-containing] A) (Homo sapiens, UniProt P21397).
T1 sequence (P21397 whole entry): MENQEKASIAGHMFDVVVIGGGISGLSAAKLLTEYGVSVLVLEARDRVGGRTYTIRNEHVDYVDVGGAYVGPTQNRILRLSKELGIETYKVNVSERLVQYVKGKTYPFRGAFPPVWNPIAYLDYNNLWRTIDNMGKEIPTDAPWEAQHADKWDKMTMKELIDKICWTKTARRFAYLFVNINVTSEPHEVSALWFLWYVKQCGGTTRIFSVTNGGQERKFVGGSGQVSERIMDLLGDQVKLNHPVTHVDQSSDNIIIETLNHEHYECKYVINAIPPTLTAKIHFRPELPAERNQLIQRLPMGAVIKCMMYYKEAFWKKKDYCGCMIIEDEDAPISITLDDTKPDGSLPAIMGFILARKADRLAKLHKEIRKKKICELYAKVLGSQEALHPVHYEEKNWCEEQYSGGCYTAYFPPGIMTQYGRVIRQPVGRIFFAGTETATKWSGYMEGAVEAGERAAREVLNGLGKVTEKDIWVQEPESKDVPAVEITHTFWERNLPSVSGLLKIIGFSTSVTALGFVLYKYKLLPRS
Kind of data set: Inhibition of human recombinant MAO-A using p-tyramine as substrate at 50 to 200 uM measured up to 50 mins by ELISA screening analysis. The settings on record: probe p-tyramine. (In general: ELISA stands for enzyme-linked immunosorbent assay.)

The target in data set [7] is T2, MAO-B (amine oxidase [flavin-containing] B) (Homo sapiens, UniProt P27338).
T2 sequence (P27338 whole entry): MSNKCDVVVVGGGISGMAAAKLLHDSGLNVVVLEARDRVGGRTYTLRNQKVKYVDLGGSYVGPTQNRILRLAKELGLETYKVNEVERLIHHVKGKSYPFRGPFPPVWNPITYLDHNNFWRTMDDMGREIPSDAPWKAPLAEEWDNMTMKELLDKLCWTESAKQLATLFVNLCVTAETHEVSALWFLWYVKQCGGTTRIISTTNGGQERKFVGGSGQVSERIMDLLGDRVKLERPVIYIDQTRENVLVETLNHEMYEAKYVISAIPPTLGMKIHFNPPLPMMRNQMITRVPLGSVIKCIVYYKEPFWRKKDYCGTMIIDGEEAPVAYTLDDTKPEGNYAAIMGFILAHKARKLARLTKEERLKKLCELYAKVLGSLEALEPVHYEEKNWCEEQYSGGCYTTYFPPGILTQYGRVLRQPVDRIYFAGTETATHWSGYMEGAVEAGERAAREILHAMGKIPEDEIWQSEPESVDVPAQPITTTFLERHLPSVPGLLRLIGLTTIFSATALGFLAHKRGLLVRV
In words: Inhibition of human recombinant MAO-B using p-tyramine as substrate at 50 to 200 uM measured up to 50 mins by ELISA screening analysis. Particulars: probe p-tyramine.

Data set [8] addresses T3, Amine oxidase [flavin-containing] A (Homo sapiens, UniProt P21397).
T3 sequence (P21397 whole entry): T1 sequence (P21397 whole entry)
Kind of data set: Inhibition of human recombinant MAO-A using p-tyramine as substrate after 15 mins by UV/Vis spectrophotometer analysis.

The target in data set [9] is T4, Amine oxidase [flavin-containing] B (Homo sapiens, UniProt P27338).
T4 sequence (P27338 whole entry): T2 sequence (P27338 whole entry)
In words: Inhibition of human recombinant MAO-B using p-tyramine as substrate after 15 mins by UV/Vis spectrophotometer analysis.

The species named for data set [10] is Homo sapiens. In words: Selectivity ratio of IC50 for human recombinant MAO-A to IC50 for human recombinant MAO-B.
Data set [11] concerns Mycobacterium tuberculosis. In words: Antimycobacterial activity against Mycobacterium tuberculosis H37Rv ATCC 27294. The format is functional.
The subject of data set [12] is Staphylococcus aureus. In words: Antibacterial activity against […] Staphylococcus aureus ATCC 25923 after 18 hrs by broth dilution method. It is filed as functional. The settings on record: ATCC 25923, 18 h. A general note: In broth dilution the organism is exposed to a series of concentrations in liquid medium.
The test system of data set [13] is Staphylococcus epidermidis. In words: Antibacterial activity against methicillin-sensitive Staphylococcus epidermidis ATCC 12228 after 18 hrs by broth dilution method. It is filed as functional. Particulars: ATCC 12228, 18 h.
Data set [14] has as its target T3, Amine oxidase [flavin-containing] A. In words: Reversible inhibition of human MAO-A.
The target of data set [15] is T4, Amine oxidase [flavin-containing] B. In words: Reversible inhibition of human MAO-B.
The test system of data set [16] is Mycobacterium tuberculosis. Kind of data set: Antimycobacterial activity against Mycobacterium tuberculosis H37Rv. It is filed as functional.

The term inhibition denotes the percentage by which the read-out fell short of the control. A word on the IC50: it is the concentration that gives 50% inhibition. Take `O=C(C1CC1)N(O)C[C@H]1CN(c2ccc(N3CCOCC3)c(F)c2)C(=O)O1`: the MIC in [1], in [2], in data set [3], in data set [4] and in data set [5] was above 32 µg/mL in each case. The inhibition at 50 min in data set [6] and in [7] was at least 50% throughout. For the same compound, the IC50 in [8] was 112 µM; in data set [9] it was 90.9 µM. Also, the Ratio IC50 in data set [10] came to 1.23.
For the compound `CCC(=O)N(O)C[C@H]1CN(c2ccc(N3CCOCC3)c(F)c2)C(=O)O1`, the MIC in data set [1], in data set [2], in data set [3], in data set [4] and in data set [5] was above 32 µg/mL in each case. Moreover, the inhibition at 50 min in [6] and in [7] was at least 50% in each case. Also, the IC50 in data set [8] was 115 µM; in data set [9] it was 100 µM. Further, in data set [10], the Ratio IC50 was 1.15.
`CC(=O)N1CCN(c2ccc(N3C[C@H](CN(OC(=O)C(C)C)C(=O)C(C)C)OC3=O)cc2F)CC1`: the MIC in [2], in data set [3], in data set [4] and in data set [5] was above 32 µg/mL in each case. Also, the inhibition at 50 min in [6] and in data set [7] was below 50% each time.
The term MIC50 denotes the lowest concentration that inhibits either 50% of growth or 50% of the strains tested, depending on the study. A higher MIC50 goes with lower susceptibility. One may read the MIC90 as the lowest concentration that inhibits either 90% of growth or 90% of the strains tested, depending on the study. Higher therefore signals weaker potency. Compound `CC(=O)N(O)C[C@H]1CN(c2ccc(N3CCOCC3)c(F)c2)C(=O)O1` gave an MIC50 in data set [11] of 1.38 µg/mL (≈ 3.91 µM). In data set [11], this compound had an MIC90 of 4.6 µg/mL (≈ 13 µM). The MIC was above 32 µg/mL in data set [3]; above 32 µg/mL in data set [4]; above 32 µg/mL in [5]; above 32 µg/mL in [12]; 16 µg/mL (≈ 45.3 µM) in [13]. The inhibition at 50 min in data set [6] and in data set [7] was below 50% in each case.
For the compound `O=C1O[C@@H](CNO)CN1c1ccc(N2CCOCC2)c(F)c1`, the MIC in data set [1], in data set [2], in data set [3], in data set [4] and in data set [5] was above 32 µg/mL in each case. The inhibition at 50 min in data set [6] and in data set [7] was at least 50% in each case. Moreover, the IC50 in data set [8] was determined as 144 µM; in data set [9], 112 µM. In addition, the Ratio IC50 in [10] came to 1.29.
`CC(=O)N1CCN(c2ccc(N3C[C@H](CN(OC(=O)C4CC4)C(=O)C4CC4)OC3=O)cc2F)CC1`: the MIC in [2], in [3], in [4] and in data set [5] was above 32 µg/mL throughout. Also, the inhibition at 50 min in data set [6] was below 50%.
As to `CC(=O)N(O)C[C@H]1CN(c2ccc(N3CCN(C(C)=O)CC3)c(F)c2)C(=O)O1`, the MIC in [1], in data set [2], in data set [3], in data set [4] and in data set [5] was above 32 µg/mL each time. Further, the inhibition at 50 min in [6] and in data set [7] was below 50% each time.
Take `Cn1nnc(-c2ccc(-c3ccc(N4C[C@H](CO)OC4=O)cc3F)cn2)n1` [TEDIZOLID]: the concentration for half-maximal inhibition (IC50) in data set [14] was found to be 8.7 µM; in data set [15], 5.7 µM.
With `O=C(ON(C[C@H]1CN(c2ccc(N3CCOCC3)c(F)c2)C(=O)O1)C(=O)C1CC1)C1CC1`, the MIC in data set [2], in [3], in [4] and in data set [5] was above 32 µg/mL throughout. The inhibition at 50 min in data set [6] and in data set [7] was below 50% throughout.
`CC(C)C(=O)ON(C[C@H]1CN(c2ccc(N3CCOCC3)c(F)c2)C(=O)O1)C(=O)C(C)C`: the MIC in data set [2], in data set [3], in [4] and in data set [5] was above 32 µg/mL throughout. The inhibition at 50 min is below 50% in data set [6] and at least 50% in data set [7]. The IC50 in data set [9] stood at 108 µM.
`CCC(=O)ON(C[C@H]1CN(c2ccc(N3CCN(C(C)=O)CC3)c(F)c2)C(=O)O1)C(=O)CC`: the MIC in data set [2], in data set [3], in [4] and in data set [5] was above 32 µg/mL throughout. Also, in [6], the inhibition at 50 min was below 50%.
With `CC(=O)N1CCN(c2ccc(N3C[C@H](CNO)OC3=O)cc2F)CC1.O=C(O)C(F)(F)F`, the MIC in data set [1], in [2], in [3], in [4] and in data set [5] was above 32 µg/mL in each case. For the same compound, in data set [6], the inhibition at 50 min was at least 50%. Also, in [8], the half-inhibitory concentration (IC50) came out at 46.6 µM.
Consider `CC(=O)ON(C[C@H]1CN(c2ccc(N3CCOCC3)c(F)c2)C(=O)O1)C(C)=O`, for which the MIC in data set [2], in data set [3], in data set [4] and in data set [5] was above 32 µg/mL throughout. The inhibition at 50 min in data set [6] and in [7] was below 50% each time.
For `CCC(=O)ON(C[C@H]1CN(c2ccc(N3CCOCC3)c(F)c2)C(=O)O1)C(=O)CC`, the MIC in [2], in [3], in data set [4] and in data set [5] was above 32 µg/mL in each case. Besides, the inhibition at 50 min in [6] was below 50%; in [7] it was at least 50%. Besides, the IC50 in data set [9] worked out at 168 µM.
With `CCC(=O)N(O)C[C@H]1CN(c2ccc(N3CCN(C(C)=O)CC3)c(F)c2)C(=O)O1`, the MIC in [1], in data set [2], in data set [3], in data set [4] and in data set [5] was above 32 µg/mL throughout. For the same compound, in data set [6], the inhibition at 50 min was below 50%.
In the case of `CC(=O)ON(C[C@H]1CN(c2ccc(N3CCN(C(C)=O)CC3)c(F)c2)C(=O)O1)C(C)=O`, the MIC in data set [2], in [3], in data set [4] and in data set [5] was above 32 µg/mL each time. Moreover, the inhibition at 50 min in [6] was below 50%.
With `CC(C)C(=O)N(O)C[C@H]1CN(c2ccc(N3CCOCC3)c(F)c2)C(=O)O1`, the MIC in [1], in [2], in data set [3], in data set [4] and in data set [5] was above 32 µg/mL each time. Further, the inhibition at 50 min is below 50% in data set [6] and at least 50% in [7]. For the same compound, the IC50 in data set [9] was 107 µM.
As to `NC(=S)NC[C@H]1CN(c2ccc(C3CCCCC3=O)c(F)c2)C(=O)O1` (some centres not stated), the MIC in [16] turned out to be 0.06 µg/mL (≈ 0.164 µM).
In the case of `CC(=O)NC[C@H]1CN(c2ccc(N3CCOCC3)c(F)c2)C(=O)O1` [LINEZOLID], the concentration for half-maximal inhibition (IC50) in [14] turned out to be 46 µM; in data set [15] it was 2.1 µM. Also, the MIC in [2] was 2 µg/mL (≈ 5.93 µM). Also, the inhibition at 50 min in data set [6] and in data set [7] was at least 50% in each case.
